Columns and labels:
Set-up in all cases: species or system Hepatitis C virus
HCV replicon 1A Y93H = assay: Cell-based HCV replicon assay (Replicon Assay A), replicon 1AY93H; details: read-out: EC50 replicon 1A Y93H; Replicon Assay A; replicon RNA by real time PCR, day 3
How it was run: (§1)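 Replicon cells were seeded at 2000/well with compound, 10 serial dilutions starting at 333.3 nM to 1.667 nM, in 0.5% DMSO and 5% FBS, then harvested on day 3. Replicon RNA was measured by multiplex TaqMan RT-PCR with cyclophilin as endogenous control. EC50 is the concentration raising Ct by 1 over projected baseline.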

HCV replicon 2B = assay: Cell-based HCV replicon assay (Replicon Assay A), replicon 2B; details: read-out: EC50 replicon 2B; Replicon Assay A; replicon RNA by real time PCR, day 3
How it was run: as §1

HCV replicon 1B = assay: Cell-based HCV replicon assay (Replicon Assay B), replicon 1B; details: replicon RNA by real-time PCR, 3 days
Method: In an alternate assay (“Replicon Assay B”), 1000 cells were seeded per well in a 384-well collagen coated black plate from Greiner bio-one (Cat #781946) in 5% FBS. Inhibitors of this invention were added at 24 h post-seeding, and the plates were incubated for 3 days. Cells were subsequently lysed with Qiagen lysis buffer (Cat #1062731) to extract the RNA. HCV replicon RNA level was measured by real-time PCR using the RNA-to-CT kit from Applied Biosystem (Cat #4392656) and genotype-specific primers and probes. The amplicon was located within NS5B. […] (SEQ. ID NO. 2); the probe sequence was FAM-labeled […] (SEQ. ID NO. 3).
The real-time RT-PCR reactions were run on ABI PRISM 7900HT or Viia7 Sequence Detection System using the following program: 48° C. for 30 minutes, 95° C. for 10 minutes, 40 cycles of 95° C. for 15 sec, 60° C. for 1 minutes.
EC50 data for replicons 1A, 1AY93H and 2B were obtained using Replicon Assay A and EC50 data for replicon 1B was obtained using Replicon Assay B.

HCV replicon 1A = assay: Cell-based HCV replicon assay (Replicon Assay A), replicon 1A; details: replicon RNA by real time PCR, day 3
How it was run: as §1

| Compound | EC50 (HCV replicon 1A Y93H) [pM] | EC50 (HCV replicon 2B) [pM] | EC50 (HCV replicon 1B; Hepatitis C virus, 72 h) [pM] | EC50 (HCV replicon 1A; Hepatitis C virus, 72 h) [pM] | EC50 (HCV replicon 1B) [pM] | EC50 (HCV replicon 1A) [pM] |
| --- | --- | --- | --- | --- | --- | --- |
| COC(=O)N[C@H](C(=O)N1CCC[C@H]1c1ncc(-c2cc(F)c3c(c2)OC(c2ccc4c(c2)OCC4)n2c-3cc3cc(-c4cnc([C@@H]5C[C@H]6C[C@H]6N5C(=O)[C@@H](NC(=O)OC)C(C)C)[nH]4)ccc32)[nH]1)C(C)C (single isomer, unassigned) [Compound 48] | 33 | 382 | 1.5 | 1.9 |  |  |
| COC(=O)NC(C(=O)N1CCC[C@H]1c1ncc(-c2ccc3c(c2)cc2n3C(c3ccc4c(c3)OCCC4)Oc3cc(-c4cnc([C@@H]5CCCN5C(=O)[C@@H](NC(=O)OC)C(C)C)[nH]4)cc(F)c3-2)[nH]1)C1CCO[C@H](C)C1 (single isomer, unassigned) [Compound 94] | 6 | 4 |  |  | 3.3 | 2.3 |
| COC(=O)N[C@H](C(=O)N1CCC[C@H]1c1ncc(-c2ccc3c(c2)cc2n3C(c3ccc4c(c3)OCCC4)Oc3cc(-c4cnc([C@@H]5CCCN5C(=O)[C@@H](NC(=O)OC)C5CCOCC5)[nH]4)cc(F)c3-2)[nH]1)C(C)C (single isomer, unassigned) [Compound 34] | 8 | 5 |  |  | 3 | 2.1 |
| COC(=O)NC(C(=O)N1CCC[C@H]1c1ncc(-c2cc(F)c3c(c2)OC(c2ccc4c(c2)OCCC4)n2c-3cc3cc(-c4cnc([C@@H]5CCCN5C(=O)[C@@H](NC(=O)OC)C5CCOCC5)[nH]4)ccc32)[nH]1)C(C)(C)F (single isomer, unassigned) [Compound 89] | 17 | 15 |  |  | 3.1 | 2.1 |
| COC(=O)NC(C(=O)N1CCC[C@H]1c1ncc(-c2ccc3c(c2)cc2n3C(c3ccc4c(c3)OC(C)CC4)Oc3cc(-c4cnc([C@@H]5CCCN5C(=O)[C@@H](NC(=O)OC)C(C)C)[nH]4)cc(F)c3-2)[nH]1)C1CCOC(C)(C)C1 (single isomer, unassigned) [Compound 64] | 60 | 26 |  |  | 4 | 2.7 |
| COC(=O)NC(C(=O)N1CCC[C@H]1c1ncc(-c2ccc3c(c2)cc2n3C(c3ccc4c(c3)OC(C)CC4)Oc3cc(-c4cnc([C@@H]5CCCN5C(=O)[C@@H](NC(=O)OC)C(C)C)[nH]4)cc(F)c3-2)[nH]1)C1CCOC(C)(C)C1 (single isomer, unassigned) [Compound 63] | 32 | 16 | 2 |  |  | 2.6 |
| COC(=O)NC(C(=O)N1[C@@H]2C[C@@H]2C[C@H]1c1ncc(-c2ccc3c(c2)cc2n3C(c3ccc4c(c3)OCCC4)Oc3cc(-c4cnc([C@@H]5CCCN5C(=O)[C@@H](NC(=O)OC)C(C)C)[nH]4)cc(F)c3-2)[nH]1)C1CCOC(C)(C)C1 (single isomer, unassigned) [Compound 70] | 6 | 12 |  |  | 2.7 | 2.8 |
| COC(=O)NC(C(=O)N1CCC[C@H]1c1ncc(-c2ccc3c(c2)cc2n3C(c3ccc4c(c3)OCCC4)Oc3cc(-c4cnc([C@@H]5CCCN5C(=O)[C@@H](NC(=O)OC)C(C)C)[nH]4)cc(F)c3-2)[nH]1)C1C[C@@H](C)O[C@H](C)C1 (single isomer, unassigned) [Compound 78] | 9 | 4 | 2.6 |  |  | 2.2 |
| COC(=O)N[C@H](C(=O)N1CCC[C@H]1c1ncc(-c2cc(F)c3c(c2)OC(c2ccc4c(c2)OCCC4C)n2c-3cc3cc(-c4cnc([C@@H]5CCCN5C(=O)[C@@H](NC(=O)OC)C(C)C)[nH]4)ccc32)[nH]1)C(C)C (single isomer, unassigned) [Compound 8] | 38 | 41 | 1.1 |  |  | 2.1 |
